Experimental data published in PubChem BioAssay (NCI).
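Test compounds were applied to cells in 96-well plates for 48 hours at 5 doses. Here, GI50 denotes the concentration required for 50% inhibition of growth. TGI: total growth inhibition.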 Where a SMILES comes first, the peptide text is derived from it. The star is where a group is joined. Trt = c1ccc(C(c2ccccc2)(c2ccccc2)*)cc1; Cbz = O=C(OCc1ccccc1)*

Key:
Assay in all cases: NCI anticancer screen, dose series, 48 h
SF-295 CNS = tested on: SF-295 CNS
ACHN renal = tested on: ACHN renal
CCRF-CEM leukemia = tested on: CCRF-CEM leukemia
HOP-62 NSCLC = tested on: HOP-62 NSCLC
TK-10 renal = tested on: TK-10 renal
UACC-62 melanoma = tested on: UACC-62 melanoma
PC-3 prostate = tested on: PC-3 prostate
OVCAR-8 ovarian = tested on: OVCAR-8 ovarian
A498 renal = tested on: A498 renal
UACC-257 melanoma = tested on: UACC-257 melanoma

SMILES | TGI (SF-295 CNS) [µM] | TGI (ACHN renal) [µM] | TGI (CCRF-CEM leukemia) [µM] | TGI (HOP-62 NSCLC) [µM] | TGI (TK-10 renal) [µM] | TGI (UACC-62 melanoma) [µM] | TGI (PC-3 prostate) [µM] | TGI (OVCAR-8 ovarian) [µM] | TGI (A498 renal) [µM] | TGI (UACC-257 melanoma) [µM] | GI50 (SF-295 CNS) [µM] | GI50 (ACHN renal) [µM] | GI50 (CCRF-CEM leukemia) [µM] | GI50 (HOP-62 NSCLC) [µM] | GI50 (TK-10 renal) [µM] | GI50 (UACC-62 melanoma) [µM] | GI50 (PC-3 prostate) [µM] | GI50 (OVCAR-8 ovarian) [µM] | GI50 (A498 renal) [µM] | GI50 (UACC-257 melanoma) [µM]
COc1ccc(-c2cc(=O)c3c(O)c(OC)c(OC)c(OC)c3o2)cc1OC | > 100 | > 100 | > 100 | 82.9 | > 100 | > 100 | > 100 | > 100 | > 100 | > 100 |  |  |  |  |  |  |  |  |  | 
O=C1NC(=NCc2ccccc2Cl)S/C1=C\c1ccc2ncccc2c1 | > 25 | > 25 | > 25 | > 25 | > 25 | > 25 | > 25 | > 25 | > 21.5 | > 25 | 9.59 | 9.54 | 11.2 | 16 | 6.02 | 17.8 | > 25 | > 25 | 4.21 | > 25
C[C@@]1([C@H](OC(=O)c2ccccc2)C(N)=O)CO1 | 41.5 | 34.3 | > 100 | 64.9 | 73.7 | 29.4 | 52.1 | 46.1 | 88.3 | > 100 | 16.9 | 10.5 | 19.7 | 21.8 | 19.8 | 14.9 | 16.6 | 20.1 | 33.8 | 43.7
NS(=O)(=O)c1ccc(Nc2cc(-c3ccc(O)c(F)c3)[nH]n2)cc1 | > 25 | > 25 | > 25 | > 25 | > 25 | > 25 | > 25 | > 25 | > 25 | > 25 | > 25 | > 25 | 13.5 | > 25 | > 25 | > 25 | > 25 | 17.8 | > 25 | > 25
COc1cc2c(c(OC)c1OC)-c1ccc(NN(C(=O)c3ccccc3)C(=O)c3ccccc3)c(=O)cc1[C@@H](NC(C)=O)CC2 (tested in a mixture with another compound) | > 100 | 24.8 | > 100 | 30.3 | 42.5 | 42.1 | > 100 | 42.7 | 52 | 62.9 | 3.81 | 4.27 | 3.57 | 4.54 | 4.04 | 4.18 | 4.69 | 3.86 | 3.78 | 14.4
COc1cc2cc(Oc3ccc(NC(=O)Nc4cc(C(F)(F)F)cc(C(F)(F)F)c4)cc3)c(C)nc2cc1OCCN1CCOCC1 | 2.92 | 5.42 | 6.57 | 9.16 | 12.5 | 6.9 | 5.16 | 12.8 | 6.69 | 4.24 | 1.14 | 1.53 | 1.41 | 2.2 | 3.7 | 1.67 | 1.18 | 1.67 | 1.8 | 1.4
COc1cc([N+](=O)[O-])c(OC)cc1-c1nc2sc(C)c(C)n2c1/C(N)=N/C(=N)N | > 100 | > 100 | > 100 | > 100 | > 100 |  | > 100 |  |  | > 100 | > 100 | > 100 | 6.01 | > 100 | > 100 |  | > 100 |  |  | 1.02
COc1cc(/C=C/C(=O)c2cccc(-n3cc(-c4cc(OC)c(OC)c(OC)c4)[nH]c3=O)c2)cc(OC)c1OC | 19.5 | 3.3 | > 100 | 8.74 | 6.68 | 4.01 | 18.6 | 8.9 | > 100 | 5.45 | 4.96 | 1.74 | 0.275 | 3.08 | 3 | 1.87 | 2.63 | 2.32 | 20.3 | 2.22
Clc1nccc2c(-c3csc(-c4c[nH]c5ccc(Br)cc45)n3)c[nH]c12 | 5.61 | 12.6 | 20.9 | 7.24 | 13.4 | 4.84 | 14 | 16.2 | 4.84 | 4.88 | 2.48 | 2.02 | 3.16 | 2.11 | 4.16 | 2.19 | 3.86 | 3.65 | 1.56 | 2.68
COC(=O)C(CO)NC(=O)C(CSC(c1ccccc1)(c1ccccc1)c1ccccc1)NC(=O)OCc1ccccc1 (configuration not stated) (Cbz-Cys(Trt)-Ser-OMe; configuration not given here) | 34.5 | > 53.3 | 7.63 | 46.5 | > 66.1 | 24.9 | 27.4 | 36.5 |  | 25.6 |  |  |  |  |  |  |  |  |  | 
COc1ccc2nc3cc(Cl)ccc3c(NCCCNCCO)c2c1 | 2.32 | 3.25 | 2.28 | 2.14 | 3.2 | 2.54 | 2.54 | 2.45 | 1.5 | 3.48 | 0.523 | 0.403 | 0.476 | 0.393 | 0.587 | 0.807 | 0.544 | 0.415 | 0.197 | 1.82
COc1ccc2c(c1)OC(N)=C(C#N)C2c1cc(OC)c(OC)c(OC)c1 (configuration not stated) | > 44.4 | > 100 | > 100 | 33.2 |  | > 100 | > 100 | > 70.2 | 0.148 | > 100 | 0.03 | 0.0691 | 0.0337 | 0.0548 |  | 0.0343 | 0.0498 | 0.0355 | 0.0222 | 0.0457
COc1cccc(/C=C/C(=O)c2ccc3cc(OC)ccc3c2)c1 | 22.1 |  |  | > 50 | 46.4 | 21.9 | > 50 | 33.3 |  | > 50 | 9.58 |  |  | 17.3 | 15.6 | 8.35 | 18.3 | 10.6 |  | > 50
C/C(=N\O)c1ccc2ccc3ccccc3c2c1 | 86.9 | > 100 | > 100 | > 100 | > 100 | 45.2 | > 100 | 61.4 |  | 53.4 |  |  |  |  |  |  |  |  |  | 
CCOC(=O)CSc1cc(Cl)c(C)cc1S(=O)(=O)/N=C(/N=C/c1ccc([N+](=O)[O-])s1)NNC | 47 | 39.9 | > 100 | 31.3 | 67.6 | 30.8 | > 100 | 80.2 |  | 67.2 | 16.1 | 17 | 30.3 | 13.3 | 23 | 14.1 | 25 | 32.7 |  | 28.7
O=C1CC2OCC=C3CN4CCC56c7ccccc7N1C5C2C3CC46O (configuration not stated) | > 100 | > 100 | > 100 |  | > 100 | > 100 | > 100 | > 100 | > 100 | > 100 |  |  |  |  |  |  |  |  |  | 
CC(=O)Nc1ccc(C(=O)CCl)cc1 | 33.7 | 3.29 | 7.51 | 32.1 | 7.71 | 21.6 | 22.3 | 24.2 |  | 23.3 | 16 | 1.8 | 2.41 | 15 | 2.82 | 8.3 | 10 | 7.56 |  | 10.9
Cc1ccccc1N=Nc1c(O)ccc2ccccc12 | > 100 | > 100 | > 100 | > 100 | > 100 | > 100 | > 100 | > 100 |  | > 100 |  |  |  |  |  |  |  |  |  | 
CCOC(=O)c1c(-c2ccccc2)[n+](=O)c2cc(Cl)c(Cl)cc2n1[O-] | 15.9 | 24.2 |  | 18.9 | 4.07 | 22.6 | 62.1 | 8.01 | 33.9 | 8.41 | 4.17 | 11.9 |  | 4.06 | 1.57 | 5.11 | 0.769 | 2.8 | 18.4 | 2.61
COc1cc(-c2cc(/C=C/C(=O)c3ccc(F)c(F)c3)[nH]n2)cc(OC)c1OC |  | > 100 | 47.2 | > 100 | 7.41 | 7.44 | 5.72 | 17.3 | 7.13 | 6.28 |  | 3.26 | 3.08 | 4.39 | 2.29 | 2.38 | 1.66 | 2.88 | 2.11 | 1.75
NC1NC=NC2C1N=CN2C1OC(CO)C2[O][Sn][O]C21 (configuration not stated) | > 100 | > 100 | > 100 | > 100 | > 100 | > 100 |  | > 100 | > 100 | > 100 | > 100 | > 100 | > 100 | > 100 | > 100 | > 100 |  | > 100 | > 100 | > 100
